Test results as given in ChEMBL document CHEMBL5528022, “Discovery of a brain-permeable bromodomain and extra terminal domain (BET) inhibitor with selectivity for BD1 for the treatment of multiple sclerosis” (Eur J Med Chem, 2024).
Converted amounts (≈) assume the structure as drawn. The source made the active and inactive calls. The rule behind the calls is not given here.

What was measured:
[1] = Unbound drug level in ICR mouse brain incubated for 5 hrs by equilibrium dialysis method; format: ADME, tissue-based
[2] = Stability in rat liver microsomes assessed as intrinsic clearance; format: ADME, Microsome; conditions: read-out: CLH
[3] = biological target: T1, Bromodomain-containing protein 4 (Homo sapiens, UniProt O60885); assay: Inhibition of BRD4 BD1 (unknown origin) incubated for 15 mins by HTRF method
[4] = Toxicity in C57BL/6 mouse model of experimental autoimmune encephalomyelitis assessed as body weight loss at 30 to 60 mg/kg, ip administered 6 days post immunization and measured every 3 days for 28 days post immunization; format: organism-based; conditions: in vivo, 528 h, dose 30-60 mg/kg, time 22 day
[5] = Stability in rat liver microsomes assessed as half life; format: ADME, Microsome
[6] = Selectivity ratio of IC50 for inhibition of BRD4 BD2 (unknown origin) to IC50 for inhibition of BRD4 BD1 (unknown origin)
Mus musculus [7] = assay: Anti-inflammatory activity in complete Freund's adjuvant/MOG (35 to 55 residues)/pertussis toxin-induced experimental autoimmune encephalomyelitis C57BL/6 mouse model assessed as reduction in TNF-alpha level at 30 to 60 mg/kg, ip qd administered 6 days post immunization and measured every 3 days for 28 days post immunization; format: functional, organism-based; conditions: dose 30-60 mg/kg, time 22.0 day
Mus musculus [8] = assay: Anti-inflammatory activity in complete Freund's adjuvant/MOG (35 to 55 residues)/pertussis toxin-induced experimental autoimmune encephalomyelitis C57BL/6 mouse model assessed as myelin density at 60 mg/kg, ip qd administered 6 days post immunization and measured every 3 days for 28 days post immunization by Luxol fast blue staining based bright field fluorescence microscopic analysis; format: functional, organism-based; conditions: time 22.0 day
[9] = Cmax in Sprague-Dawley rat at 5 mg/kg, iv measured upto 25 hrs by LC-MS/MS analysis; format: ADME, organism-based; conditions: in vivo
Mus musculus [10] = assay: Anti-inflammatory activity in complete Freund's adjuvant/MOG (35 to 55 residues)/pertussis toxin-induced experimental autoimmune encephalomyelitis C57BL/6 mouse model assessed as change in cumulative scores at 30 to 60 mg/kg, ip qd administered 6 days post immunization and measured every 3 days for 28 days post immunization; format: functional, organism-based; conditions: dose 30-60 mg/kg, time 22.0 day
[11] = biological target: T2, Bromodomain-containing protein 3 (Homo sapiens, UniProt Q15059); assay: Inhibition of BRD3 BD1 (unknown origin) incubated for 15 mins by HTRF method
T2 sequence (Q15059 whole entry): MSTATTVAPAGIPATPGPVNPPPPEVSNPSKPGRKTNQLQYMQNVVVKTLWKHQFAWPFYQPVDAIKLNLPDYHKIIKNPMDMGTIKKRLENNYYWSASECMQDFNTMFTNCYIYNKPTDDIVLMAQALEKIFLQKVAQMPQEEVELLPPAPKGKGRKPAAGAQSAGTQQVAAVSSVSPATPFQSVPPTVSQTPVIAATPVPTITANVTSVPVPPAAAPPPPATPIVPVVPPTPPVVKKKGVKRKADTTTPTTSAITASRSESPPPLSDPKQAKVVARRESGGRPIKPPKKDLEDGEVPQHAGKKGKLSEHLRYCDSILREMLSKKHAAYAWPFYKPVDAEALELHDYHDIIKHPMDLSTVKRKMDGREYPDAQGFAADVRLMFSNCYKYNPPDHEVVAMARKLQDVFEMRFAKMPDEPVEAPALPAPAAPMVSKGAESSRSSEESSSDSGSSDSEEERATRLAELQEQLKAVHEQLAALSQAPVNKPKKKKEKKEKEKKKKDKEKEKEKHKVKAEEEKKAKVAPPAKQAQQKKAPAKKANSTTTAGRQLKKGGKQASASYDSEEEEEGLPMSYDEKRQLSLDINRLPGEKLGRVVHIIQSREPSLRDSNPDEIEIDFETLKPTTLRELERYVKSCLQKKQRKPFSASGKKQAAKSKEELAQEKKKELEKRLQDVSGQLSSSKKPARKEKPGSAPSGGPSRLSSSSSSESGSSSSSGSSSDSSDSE

[12] = Cmax in C57BL/6 mouse blood at 5 mg/kg, iv measured upto 25 hrs by LC-MS/MS analysis; format: ADME, organism-based
[13] = biological target: Bromodomain-containing protein 2 (Homo sapiens, UniProt P25440); assay: Inhibition of BRD2 BD1 (unknown origin) incubated for 15 mins by HTRF method
Chain of Bromodomain-containing protein 2 (P25440 whole entry): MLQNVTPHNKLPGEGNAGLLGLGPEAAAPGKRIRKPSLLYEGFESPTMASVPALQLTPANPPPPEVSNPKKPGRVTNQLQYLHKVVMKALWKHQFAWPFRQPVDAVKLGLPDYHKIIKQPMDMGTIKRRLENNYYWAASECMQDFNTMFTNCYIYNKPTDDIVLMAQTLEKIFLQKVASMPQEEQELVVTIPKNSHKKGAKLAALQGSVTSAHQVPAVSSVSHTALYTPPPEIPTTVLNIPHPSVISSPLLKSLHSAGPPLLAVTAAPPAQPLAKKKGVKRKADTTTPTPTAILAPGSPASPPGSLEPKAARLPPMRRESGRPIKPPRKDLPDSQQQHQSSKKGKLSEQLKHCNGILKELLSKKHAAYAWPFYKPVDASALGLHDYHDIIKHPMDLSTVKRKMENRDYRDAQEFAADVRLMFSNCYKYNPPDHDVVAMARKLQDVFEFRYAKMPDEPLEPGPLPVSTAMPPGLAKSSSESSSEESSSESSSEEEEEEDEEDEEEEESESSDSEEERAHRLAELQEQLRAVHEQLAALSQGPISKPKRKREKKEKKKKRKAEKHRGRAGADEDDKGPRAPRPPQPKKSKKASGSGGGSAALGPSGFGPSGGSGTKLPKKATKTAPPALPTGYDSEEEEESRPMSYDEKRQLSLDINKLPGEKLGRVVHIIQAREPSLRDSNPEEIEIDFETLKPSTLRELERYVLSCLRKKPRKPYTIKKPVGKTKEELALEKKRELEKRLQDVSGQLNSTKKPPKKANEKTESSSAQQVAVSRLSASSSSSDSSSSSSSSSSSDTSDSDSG

[14] = Tmax in Sprague-Dawley rat at 25 mg/kg, ip measured upto 25 hrs by LC-MS/MS analysis; format: ADME, organism-based; conditions: in vivo
[15] = Cmax in Sprague-Dawley rat at 25 mg/kg, ip measured upto 25 hrs by LC-MS/MS analysis; format: ADME, organism-based; conditions: in vivo
Mus musculus [16] = assay: Anti-inflammatory activity in complete Freund's adjuvant/MOG (35 to 55 residues)/pertussis toxin-induced experimental autoimmune encephalomyelitis C57BL/6 mouse model assessed as reduction in IL-6 level at 30 to 60 mg/kg, ip qd administered 6 days post immunization and measured every 3 days for 28 days post immunization; format: functional, organism-based; conditions: dose 30-60 mg/kg, time 22.0 day
[17] = biological target: T1, Bromodomain-containing protein 4; assay: Binding affinity to BRD4 BD2 (unknown origin) assessed as change in gibbs free energy by ITC method
[18] = Mean residence time in Sprague-Dawley rat at 25 mg/kg, ip measured upto 25 hrs by LC-MS/MS analysis; format: ADME, organism-based; conditions: in vivo
Mus musculus [19] = assay: Anti-inflammatory activity in complete Freund's adjuvant/MOG (35 to 55 residues)/pertussis toxin-induced experimental autoimmune encephalomyelitis C57BL/6 mouse model assessed as reduction in clinical scores at 30 to 60 mg/kg, ip qd administered 6 days post immunization and measured every 3 days for 28 days post immunization; format: functional, organism-based; conditions: dose 30-60 mg/kg, time 22.0 day
[20] = biological target: T1, Bromodomain-containing protein 4; assay: Binding affinity to BRD4 BD2 (unknown origin) expressed in Escherichia coli BL21 (DE3) by ITC assay
[21] = Free maximum concentration of drug in ICR mouse brain; format: ADME, tissue-based
[22] = Selectivity ratio of IC50 for inhibition of BRDT BD2 (unknown origin) to IC50 for inhibition of BRDT BD1 (unknown origin)
[23] = Half life in Sprague-Dawley rat at 5 mg/kg, iv measured upto 25 hrs by LC-MS/MS analysis; format: ADME, organism-based; conditions: in vivo
[24] = Selectivity ratio of Kd for binding affinity to BRD4 BD2 (unknown origin) by ITC assay to Kd for binding affinity to BRD4 BD1 (unknown origin) by ITC assay
[25] = biological target: T2, Bromodomain-containing protein 3; assay: Inhibition of BRD3 BD2 (unknown origin) incubated for 15 mins by HTRF method
Mus musculus [26] = assay: Anti-inflammatory activity in complete Freund's adjuvant/MOG (35 to 55 residues)/pertussis toxin-induced experimental autoimmune encephalomyelitis C57BL/6 mouse model assessed as appearance of normal myelin structure at 30 to 60 mg/kg, ip qd administered 6 days post immunization and measured every 3 days for 28 days post immunization by Luxol fast blue staining based bright field fluorescence microscopic analysis; format: functional, organism-based; conditions: dose 30-60 mg/kg, time 22.0 day
[27] = Toxicity in C57BL/6 mouse model of experimental autoimmune encephalomyelitis assessed as animal death at 30 to 60 mg/kg, ip administered 6 days post immunization and measured every 3 days for 28 days post immunization; format: organism-based; conditions: in vivo, 144 h, dose 30-60 mg/kg, time 6 day
[28] = Mean residence time in Sprague-Dawley rat at 5 mg/kg, iv measured upto 25 hrs by LC-MS/MS analysis; format: ADME, organism-based; conditions: in vivo
[29] = Tmax in C57BL/6 mouse spinal cord at 5 mg/kg, iv measured upto 25 hrs by LC-MS/MS analysis; format: ADME, organism-based
Microglia = assay: Antiinflammatory activity against LPS induced neonatal rat cerebral cortex microglia by immunofluorescence assay; format: functional, cell-based
[30] = Solubility in water by HPLC analysis; format: physicochemical
[31] = Half life in Sprague-Dawley rat at 25 mg/kg, ip measured upto 25 hrs by LC-MS/MS analysis; format: ADME, organism-based; conditions: in vivo
[32] = Cmax in Sprague-Dawley rat at 25 mg/kg, po measured upto 25 hrs by LC-MS/MS analysis; format: ADME, organism-based; conditions: in vivo
[33] = biological target: T1, Bromodomain-containing protein 4; assay: Binding affinity to BRD4 BD2 (unknown origin) expressed in Escherichia coli BL21 (DE3) at 1:1 protein:compound ratio by MST assay
[34] = biological target: T1, Bromodomain-containing protein 4; assay: Binding affinity to BRD4 BD1 (unknown origin) expressed in Escherichia coli BL21 (DE3) at 1:1 protein:compound ratio by MST assay
[35] = biological target: T1, Bromodomain-containing protein 4; assay: Binding affinity to BRD4 BD1 (unknown origin) assessed as change in entropy by ITC method
[36] = Bioavailability in Sprague-Dawley rat at 25 mg/kg, ip measured upto 25 hrs by LC-MS/MS analysis; format: ADME, organism-based; conditions: in vivo
[37] = biological target: T1, Bromodomain-containing protein 4; assay: Inhibition of BRD4 BD2 (unknown origin) incubated for 15 mins by HTRF method
[38] = biological target: T1, Bromodomain-containing protein 4; assay: Binding affinity to BRD4 BD2 (unknown origin) assessed as change in enthalpy by ITC method

Cc1nn(CC2CC2)c(C)c1-c1cncc(-c2ccnc3nc[nH]c23)c1
fraction unbound at 5 h [1]: 0.979 | microsomal CLint [2]: 3.2 µL/min/mg | IC50 [3]: 176 nM | Activity [4]: Non-Toxic | half-life [5]: 3.7 h | Ratio IC50 [6]: 28 | Activity (Mus musculus [7]): Active | Activity (Mus musculus [8]): Active | Cmax [9]: 17.2 µM | Activity (Mus musculus [10]): Active | IC50 [11]: 183 nM | Cmax [12]: 17.2 µM | IC50 [13]: 498 nM | Tmax [14]: 1 h | Cmax [15]: 89.4 µM | Activity (Mus musculus [16]): Active | deltaG [17]: -6.37 kcal/mol | MRT [18]: 1.74 h | Activity (Mus musculus [19]): Active | Kd [20]: 21000 nM | fCmax [21]: 170 nM | Ratio IC50 [22]: 0.6 | half-life [23]: 3.56 h | Selectivity ratio [24]: 38 | IC50 [25]: 1940 nM | Activity (Mus musculus [26]): Active | Activity [27]: Non-Toxic | MRT [28]: 4.46 h | Tmax [29]: 1 h | Activity (Microglia): Active | solubility [30]: 760 µg/mL (≈ 2210 µM) | half-life [31]: 3.53 h | Cmax [32]: 7.15 µM | Kd [33]: 14000 nM | Kd [34]: 230 nM | TdeltaS [35]: 7.1 kcal/mol | bioavailability [36]: 121% | IC50 [37]: 4840 nM | deltaH [38]: -5.84 kcal/mol
